Values of other authors as cited in US20250205209A1, “Methods of Treating a Subject for Myalgic Encephalomyelitis/Chronic Fatigue Syndrome (ME/CFS) and Compositions for Use in The Same” (INCELLDX, INC., priority 2022, published 2025).

What was measured:
[1] = tested on: R5-tropic HIV-1; conditions: individuals with R5-tropic HIV-1; MOTIVATE 1 and MOTIVATE 2
[2] = HIV patients; >5 year follow-up of the MOTIVATE trials

Cc1nnc(C(C)C)n1[C@@H]1C[C@H]2CC[C@@H](C1)N2CC[C@H](NC(=O)C1CCC(F)(F)CC1)c1ccccc1 [Maraviroc, 4,4-difluoro-N-[(1S)-3-[(1S,5R)-3-(3-methyl-5-propan-2-yl-1,2,4-triazol-4-yl)-8-azabicyclo[3.2.1]octan-8-yl]-1-phenylpropyl]cyclohexane-1-carboxamide]
HIV viral loads [1]: lower levels of HIV viral loads
instances of death and other health threats such as hepatic failure and myocardial infarctions [2]: limited instances of death and other health threats
